Results as given in patent US6642365B1, “Anti-(retro)viral conjugates of saccharides and acetamidino or guanidino compounds” (Yeda Research and Development Co. Ltd., priority 2001, dated 2003).
Entries after “also recorded” stand apart in the source; their conditions may differ. Read-outs that look alike come from different tables or passages of the source.

Key:
CXCR4 [1] = target: T1, CXCR4 (Homo sapiens, UniProt P61073); conditions: SDF-1α 20 ng/ml
[2] = test system: HIV-1 NL4-3 AMD3100-resistant; type: cell-based; conditions: for cross-resistance of NL4-3 AMD3100-resistant virus: relative to NL4-3
Description: (§3) The cells were infected by incubation with different titers of the HIV-1 strains for 2 hrs at 37° C. in the presence or absence of the AAC of the invention. Then the cells were washed from the virus by centrifugation at 400 g and the supernatants were discarded. The cells were resuspended in culture medium, supplemented with different concentrations of the test compounds. The cells were allowed to proliferate for 5 days, the number of viable cells was quantified by a tetrazolium-based colorimetric method (CellTiter 96® AQueous One solution Cell Proliferation Assay, Promega).

TAR RNA [3] = experiment: Gel-shift binding to TAR RNA; set-up: species or system HIV-1; conditions: for Kd: CD50 normalized to the reported conditions (Calnan et al., 1991 b), read-out: apparent Kd; for effect of ten-fold excess of yeast tRNA on complex formation with TAR: ten-fold excess of tRNA (100 ng per lane)
R5 strain Ba-L = experiment: Virus-binding assay, MT-4 cells; type: cell-based, HIV-1; conditions: dose dependent; data not shown
Description: (§1) MT4 cells (5×10^5) were incubated with supernatant containing 1×10^5 pg of p24 antigen of wild type HIV-1 in the presence of different concentrations of the test compound. One hour after infection, cells were washed 3 times with PBS and p24 antigen bound to the cells was determined by a commercial ELISA test (Coulter, Spain).

HIV-1 NL4-3 = experiment: Virus-binding assay, p24 antigen bound to MT-4 cells; type: cell-based; conditions: 1 hour at 37° C.; dose dependent
Description: as §1

TAR RNA [4] = experiment: L-arginine-Amberlite affinity column elution of TAR RNA; type: binding, HIV-1; conditions: concentration that elutes 50% of TAR RNA from L-arginine-Amberlite affinity column
Description: The model Tat peptide (R52: […]) was prepared by the Weizmann Institute Chemical Services and was purified by reverse phase HPLC (C-18) (Lapidot et al., 1995). […] The RNA was transcriptionally labeled with α-^32P UTP, purified on a 12% polyacrylamide/7M urea gel (19:1 acrylamide:bis-acrylamide) and was eluted from the gel by 0.5M ammonium acetate, 10 mM magnesium acetate, 1 mM EDTA and 0.1% SDS. The sample was subjected to phenol extraction and the RNA was precipitated from 70% ethanol. Purified RNA was dissolved in diethyl pyrocarbonate-treated water (DEPC water), its concentration was determined by UV absorption at 260 nm and the specific radioactivity was determined by scintillation counting on a LS 1701 “Bruker” counter.
The L-arginine-Amberlite resin was prepared as follows: Carboxyl groups of Amberlite IRC-50 resin were covalently modified with ethanolamine using 1-(3-dimethylaminopropyl) 3-ethylcarbodiimide, a water-soluble coupler. The hydroxy ethyleneamide resin obtained was washed and dried, and L-arginine (12-16 μmols per ml of resin) was coupled to the hydroxy groups of the resin via an isourea moiety using a standard cyanogen bromide protocol. The final concentration of arginine residues was 12-16 μmol per ml of resin. The swollen L-arginino-Amberlite resin (200 μl) was packed into a plastic mini-column and equilibrated with buffer containing 40 mM Tris HCl, pH 7.5, 250 mM NaCl, 0.5 mM EDTA and 5 mM MgCl2 (buffer A). Approximately 1 ng of ^32P-UTP labeled TAR RNA in buffer A was loaded on the column. The column was eluted 3 to 5 times with 400 μl portions of buffer A, until no radioactivity was detected in the eluent. […] Each of the test compounds was dissolved in buffer A and passed through the column in 300 μl portions. Radioactivity of the eluates was determined by scintillation counting on a LS 1701 “Bruker” counter. CE50 values, the concentrations of inhibitors eluting 50% of the radioactive material from the column, were determined.

[5] = test system: HIV-1 AZT-resistant clinical isolate AOM; experiment: Anti-HIV assay, MTT; type: cell-based
Description: as §3

CXCR4 [6] = target: T1, CXCR4; experiment: Inhibition of anti-CXCR4 mAb (12G5) binding, flow cytometry, PHA-activated PBMC; set-up: endogenous in cells; conditions: for IC50: read-out: IC50-12G5 PMBC
Description: (§2) Measurement of chemokine receptors CXCR4, CCR5 and the CD4 receptor on phytohemagglutinin (PHA)-activated PBMC was performed by flow cytometry analysis. Briefly, 0.5×10^6 cells were washed in ice-cold phosphate-buffered saline (PBS) and incubated for 30 minutes at 4÷C. with fluorescent labelled mAb 12G5 and 2D7 and Leu3a (Becton Dickinson, San Jose, Calif.) or with isotype control mAbs in the presence or absence of the test compound. Then, the cells were washed with ice-cold PBS and were fixed in PBS containing 1% formaldehyde. For each sample, 10,000 events were analysed in a FACScalibur™ system (Becton Dickinson). Data were acquired and analysed with CellQuest™ software (Becton Dickinson).

[7] = test system: rG15, rG15-rC15 duplex and truncated TAR RNA sequences; experiment: Gel-shift binding to short RNA oligonucleotides (specificity); conditions: micromolar concentration range; data not shown
CXCR4 [8] = target: T1, CXCR4; experiment: Inhibition of anti-CXCR4 mAb (12G5) binding, flow cytometry, SUP-T1 cells; set-up: endogenous in cells; conditions: for affinity for CXCR4: inhibition of 12G5 binding to SUP-T1 cells or PMBC
Description: as §2

CCR5 = CCR5 (Homo sapiens, UniProt P51681); experiment: RANTES-induced intracellular calcium signal in THP-1, CCR5+ cells; conditions: data not shown
HIV-1 RF = experiment: Anti-HIV assay, MTT; type: cell-based
Description: as §3

[9] = MTT assay, read-out: EC50 HIV-1 RF

T1 sequence (P61073 whole entry): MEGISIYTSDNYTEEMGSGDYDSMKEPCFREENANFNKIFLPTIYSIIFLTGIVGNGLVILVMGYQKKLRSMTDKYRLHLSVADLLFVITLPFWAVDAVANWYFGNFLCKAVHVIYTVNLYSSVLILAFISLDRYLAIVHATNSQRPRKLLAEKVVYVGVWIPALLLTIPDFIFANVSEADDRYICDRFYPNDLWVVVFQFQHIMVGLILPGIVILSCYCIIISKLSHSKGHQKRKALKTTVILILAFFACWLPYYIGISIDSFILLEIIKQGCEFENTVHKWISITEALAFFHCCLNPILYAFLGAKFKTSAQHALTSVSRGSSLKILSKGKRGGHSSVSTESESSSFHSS
Chain of CCR5 (P51681 whole entry): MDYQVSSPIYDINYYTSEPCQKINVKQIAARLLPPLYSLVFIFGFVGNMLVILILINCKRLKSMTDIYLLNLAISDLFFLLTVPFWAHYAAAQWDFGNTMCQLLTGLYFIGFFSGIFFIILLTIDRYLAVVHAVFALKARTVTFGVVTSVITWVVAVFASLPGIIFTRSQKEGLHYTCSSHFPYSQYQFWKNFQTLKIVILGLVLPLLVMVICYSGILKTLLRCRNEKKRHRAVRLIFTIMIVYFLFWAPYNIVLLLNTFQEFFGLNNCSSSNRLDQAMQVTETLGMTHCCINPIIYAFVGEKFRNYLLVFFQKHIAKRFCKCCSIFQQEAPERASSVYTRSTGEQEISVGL

Molecule | SDF-1α-dependent Ca2+ signal (CXCR4 [1]) | cross-resistance of NL4-3 AMD3100-resistant virus [2] [fold] | CD50 (TAR RNA [3]; 12 nM 32P-labeled TAR) [nM] | CD50 (TAR RNA [3]; 50% binding, TAR RNA 12 nM) [nM] | Kd (TAR RNA [3]) [µM] | effect of ten-fold excess of yeast tRNA on complex formation with TAR (TAR RNA [3]) | binding of the R5 strain Ba-L to MT-4 cells (R5 strain Ba-L) | binding of HIV-1 NL4-3 to MT-4 cells (HIV-1 NL4-3) | CE50 (TAR RNA [4]) [mM] | EC50 [5] [µM] | IC50 (CXCR4 [6]) [µM] | binding to short RNA oligonucleotides [7] | IC50 (CXCR4 [8]) [µM] | affinity for CXCR4 (CXCR4 [8]) | intracellular Ca2+ signal induced by RANTES (CCR5) | EC50 (HIV-1 RF; [9]) [µM] | EC50 ([2]; MTT assay, read-out: EC50 HIV-1 AMD 3100res) [µM] | binding of 12G5 mAb to PHA-activated PBMC (CXCR4 [6]; 5 μM) | EC50 (HIV-1 RF; range over HIV-1 RF strain, AOM clinical isolate and M-tropic Ba-L strain, read-out: EC50) [µM]
N=C(N)NCCCC(N)C(=O)NCC1OC(OC2C(NC(=O)C(N)CCCNC(=N)N)CC(NC(=O)C(N)CCCNC(=N)N)C(OC3OC(CO)C(O)C(NC(=O)C(N)CCCNC(=N)N)C3O)C2O)C(O)C(O)C1O (stereo not shown) [R4K, Tetraargininamido-kanamycin A conjugate] | inhibited; also recorded: blocked | > 4 | 2500 | 2500 | 0.416 | do not inhibit the binding | inhibited the binding | inhibit the binding | 2.5 | 67 | 2.2 | did not display any binding | 3.7 | high affinity | did not inhibit | > 113 | – | – | –
Triargininamido-gentamicin conjugate [R3G] | inhibited; also recorded: blocked | > 9 | – | ~500 | 0.083 | do not inhibit the binding | inhibited the binding | inhibit the binding | 1.4 | 16 | 2.7 | did not display any binding | 7.7 | high affinity | did not inhibit | 35 | > 133 | suppressed | 16 to 35
